Results: patent US20130053407A1, “PYRROLO [3,2-D] PYRIMIDIN-3-YL DERIVATIVES USED AS ACTIVATORS OF AMPK” (GlaxoSmithKline LLC, priority 2010, published 2013)

Columns and labels:
Human recombinant AMPK = experiment: AMPK Enzymatic Assay (Z'Lyte FRET); type: biochemical; conditions: AMPK activation, ATP 100 μM, peptide 2 μM, means of at least 2 independent experiments
Protocol: Human recombinant AMPK (Invitrogen #PV4673 & #PV4675) is used in a FRET assay format (Z'Lyte—Invitrogen). Assay conditions are as follow: ATP 100 μM, peptide (Invitrogen #PR8650) 2 μM, 1% final DMSO in Z'Lyte kinase buffer. Reaction is initiated by addition of 0.2-0.8 ng of AMPK and incubated for 1-hour @ 30° C. A further 1-hour incubation @ 30° C. with the development reagent (Invitrogen #PR5194) is performed. FRET signal is then measured and converted to “% peptide phosphorylation” according to Z′Lyte given calculation procedure. Evaluation of compounds is carried out using concentration-response curves. Final data are expressed in “% activation” calculating the ratio of “% peptide phosphorylation” between compound-condition and basal-condition. […] All data are means of at least 2 independent experiments.

ob/ob and db/db mice = conditions: 8 day AICAR administration; cited from earlier work

Row | pEC50 (Human recombinant AMPK) | Structure (SMILES) | reduces blood glucose (ob/ob and db/db mice) [%]
1 | 5.4 | Cc1cccc(-c2ccc(-n3c(Cl)cc4[nH]c(=O)n(-c5ccc(C#N)cc5)c(=O)c43)cc2)c1O [4-[6-Chloro-5-(2′-hydroxy-3′-methyl-4-biphenylyl)-2,4-dioxo-1,2,4,5-tetrahydro-3H-pyrrolo[3,2-d]pyrimidin-3-yl]benzonitrile] | 
2 | 5.3 | COc1cccc(-c2ccc(-n3c(Cl)cc4[nH]c(=O)n(-c5cccc(F)c5)c(=O)c43)cc2)c1O [6-Chloro-3-(3-fluorophenyl)-5-[2′-hydroxy-3′-(methyloxy)-4-biphenylyl]-1H-pyrrolo[3,2-d]pyrimidine-2,4(3H,5H)-dione] | 
3 |  | NC(=O)c1ncn([C@@H]2O[C@H](CO)[C@@H](O)[C@H]2O)c1N [AICAR] | 35
